The record followed here is patent publication US20260055114A1, “IMIDAZO[1,2-B]PYRIDAZINE INHIBITORS OF CYCLIN-DEPENDENT KINASES” (H. LEE MOFFITT CANCER CENTER AND RESEARCH INSTITUTE, INC., priority 2022, published 2026).

One test relates to MDA-MB-231 cell line. Description: Antiproliferative activity, MDA-MB-231 cell line (GI50). In kind it is cell-based. As to conditions: Homo sapiens.
The subject of the next test is CCNK. Briefly: CCNK degradation (DC50, Dmax). In kind it is cell-based. Particulars: for Dmax (%): CCNK degradation.
The next test has as its target CDK12 (Homo sapiens, UniProt Q9NYV4). Briefly: Inhibition of cyclin-dependent kinase 12 (% enzyme activity at 1 uM and IC50). In kind it is biochemical. As to conditions: for remaining activity at 1 µM: 1 uM compound.

Chain of CDK12 (Q9NYV4 whole entry): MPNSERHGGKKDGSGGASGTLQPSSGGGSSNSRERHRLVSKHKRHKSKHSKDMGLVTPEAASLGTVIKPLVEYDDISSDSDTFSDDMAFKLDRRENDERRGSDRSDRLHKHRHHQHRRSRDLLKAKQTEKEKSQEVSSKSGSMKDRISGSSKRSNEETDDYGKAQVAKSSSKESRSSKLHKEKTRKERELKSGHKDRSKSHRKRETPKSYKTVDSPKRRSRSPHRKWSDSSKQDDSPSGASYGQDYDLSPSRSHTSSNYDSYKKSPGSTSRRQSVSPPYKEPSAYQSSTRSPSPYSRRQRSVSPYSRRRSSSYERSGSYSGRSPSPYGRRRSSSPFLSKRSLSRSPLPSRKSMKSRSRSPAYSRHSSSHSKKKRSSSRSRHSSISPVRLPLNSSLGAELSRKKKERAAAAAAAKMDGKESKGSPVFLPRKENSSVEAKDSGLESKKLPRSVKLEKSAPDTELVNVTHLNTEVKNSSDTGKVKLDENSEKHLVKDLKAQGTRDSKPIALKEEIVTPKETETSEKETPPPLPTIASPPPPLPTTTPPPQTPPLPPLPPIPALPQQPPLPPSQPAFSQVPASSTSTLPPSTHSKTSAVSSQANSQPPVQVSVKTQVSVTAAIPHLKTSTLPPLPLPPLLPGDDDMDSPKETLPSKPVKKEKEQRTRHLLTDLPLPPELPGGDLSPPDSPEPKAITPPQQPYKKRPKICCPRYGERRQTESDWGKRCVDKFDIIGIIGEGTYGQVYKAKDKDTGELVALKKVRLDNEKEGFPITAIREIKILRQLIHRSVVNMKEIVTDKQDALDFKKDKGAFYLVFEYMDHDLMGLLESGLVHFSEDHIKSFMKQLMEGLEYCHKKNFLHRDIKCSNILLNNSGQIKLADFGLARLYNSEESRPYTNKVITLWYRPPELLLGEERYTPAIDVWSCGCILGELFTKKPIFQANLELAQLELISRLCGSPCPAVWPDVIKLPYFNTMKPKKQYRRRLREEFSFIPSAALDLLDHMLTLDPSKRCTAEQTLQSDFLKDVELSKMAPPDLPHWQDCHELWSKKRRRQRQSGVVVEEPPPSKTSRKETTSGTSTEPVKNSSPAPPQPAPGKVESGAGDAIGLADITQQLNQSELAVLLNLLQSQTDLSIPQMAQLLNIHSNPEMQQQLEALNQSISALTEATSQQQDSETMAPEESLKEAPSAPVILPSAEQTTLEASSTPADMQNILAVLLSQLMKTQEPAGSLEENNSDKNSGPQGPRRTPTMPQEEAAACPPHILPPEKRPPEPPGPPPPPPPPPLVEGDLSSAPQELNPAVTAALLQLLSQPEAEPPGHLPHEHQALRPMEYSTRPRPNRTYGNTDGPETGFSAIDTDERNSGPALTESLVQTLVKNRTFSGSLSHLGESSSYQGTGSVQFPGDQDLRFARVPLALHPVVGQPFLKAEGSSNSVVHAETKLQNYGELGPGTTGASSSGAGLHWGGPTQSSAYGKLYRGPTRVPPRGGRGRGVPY
Chain of CDK12 (O75909 whole entry partner): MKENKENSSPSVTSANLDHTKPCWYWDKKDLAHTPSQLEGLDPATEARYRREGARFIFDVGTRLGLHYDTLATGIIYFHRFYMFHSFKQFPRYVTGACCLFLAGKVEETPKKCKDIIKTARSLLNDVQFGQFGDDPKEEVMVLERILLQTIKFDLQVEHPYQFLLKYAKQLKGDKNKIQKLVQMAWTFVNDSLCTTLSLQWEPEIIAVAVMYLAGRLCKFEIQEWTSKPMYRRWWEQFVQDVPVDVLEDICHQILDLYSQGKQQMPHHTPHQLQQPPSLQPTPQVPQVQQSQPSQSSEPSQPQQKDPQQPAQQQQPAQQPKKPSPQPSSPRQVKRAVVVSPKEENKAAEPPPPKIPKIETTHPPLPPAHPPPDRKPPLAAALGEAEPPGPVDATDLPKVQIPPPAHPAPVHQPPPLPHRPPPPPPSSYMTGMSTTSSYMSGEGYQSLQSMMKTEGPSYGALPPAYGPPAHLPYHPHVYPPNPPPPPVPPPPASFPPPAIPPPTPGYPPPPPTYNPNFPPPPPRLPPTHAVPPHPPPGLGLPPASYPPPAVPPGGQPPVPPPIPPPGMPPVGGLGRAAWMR

Consider `Clc1cccc2nc(CNc3cc(N4CCOCC4)nn4c(-c5cnn(C6CC6)c5)cnc34)[nH]c12` [Cmpd 33, N-((7-chloro-1H-benzo[d]imidazol-2-yl)methyl)-3-(1-cyclopropyl-1H-pyrazol-4-yl)-6-morpholinoimidazo[1,2-b]pyridazin-8-amine], for which halving of growth in the test with MDA-MB-231 cell line (GI50) required 6160 nM. For the same molecule, in the test on CCNK, the DC50 came out at 830 nM and the “Dmax (%)” value stood at 65%. On CDK12, this molecule displayed a remaining activity at 1 µM of 60%.
On the same counts, the results for `CN1CCN(c2cc(NCc3nc4c(F)cccc4[nH]3)c3ncc(-c4cnn(C5CC5)c4)n3n2)CC1` [Cmpd 35, 3-(1-cyclopropyl-1H-pyrazol-4-yl)-N-((4-fluoro-1H-benzo[d]imidazol-2-yl)methyl)-6-(4-methylpiperazin-1-yl) imidazo[1,2-b]pyridazin-8-amine] are 5170 nM, 1300 nM, 80% and 49%.
On to `Fc1cccc2[nH]c(CNc3cc(N4CCOCC4)nn4c(-c5cnn(C6CC6)c5)cnc34)nc12` [Cmpd 36, 3-(1-cyclopropyl-1H-pyrazol-4-yl)-N-((4-fluoro-1H-benzo[d]imidazol-2-yl)methyl)-6-morpholinoimidazo[1,2-b]pyridazin-8-amine], for which it took 4670 nM to inhibit growth in the test with MDA-MB-231 cell line by half (GI50). In the test on CCNK, half-maximal degradation (DC50) was put at 830 nM and the “Dmax (%)” value was found to be 65%. On CDK12, this molecule returned an IC50 of 1220 nM and a remaining activity at 1 µM of 45%.
Take `CN1CCN(c2cc(NCc3nc4c(F)c(F)ccc4[nH]3)c3ncc(-c4cnn(C5CC5)c4)n3n2)CC1` [Cmpd 38, 3-(1-cyclopropyl-1H-pyrazol-4-yl)-N-((4,5-difluoro-1H-benzo[d]imidazol-2-yl)methyl)-6-(4-methylpiperazin-1-yl) imidazo[1,2-b]pyridazin-8-amine]: the GI50 in the test with MDA-MB-231 cell line was determined as 5430 nM. Also, in the test with CCNK, the 50% degradation concentration (DC50) turned out to be 1600 nM and the “Dmax (%)” value came out at 65%. On CDK12, this molecule showed a remaining activity at 1 µM of 53%.
Molecule `Fc1ccc2[nH]c(CNc3cc(N4CCOCC4)nn4c(-c5cnn(C6CC6)c5)cnc34)nc2c1F` [Cmpd 39, 3-(1-cyclopropyl-1H-pyrazol-4-yl)-N-((4,5-difluoro-1H-benzo[d]imidazol-2-yl)methyl)-6-morpholinoimidazo[1,2-b]pyridazin-8-amine] showed a GI50 with MDA-MB-231 cell line of 10000 nM. In the test with CCNK, the 50% degradation concentration (DC50) was found to be 920 nM and the “Dmax (%)” value came out at 80%. Moreover, the remaining activity at 1 µM at CDK12 is 61%.
As to `CN1CCN(c2cc(NCc3nc4cc(Cl)c(Cl)cc4[nH]3)c3ncc(-c4cnn(C(F)F)c4)n3n2)CC1` [Cmpd 41, N-((5,6-dichloro-1H-benzo[d]imidazol-2-yl)methyl)-3-(1-(difluoromethyl)-1H-pyrazol-4-yl)-6-(4-methylpiperazin-1-yl) imidazo[1,2-b]pyridazin-8-amine], halving of growth in the test on MDA-MB-231 cell line (GI50) required 247 nM. In the test with CCNK, the half-maximal degradation concentration (DC50) worked out at 470 nM and the “Dmax (%)” value is reported as 100%. Also, the IC50 at CDK12 was 1000 nM.
Taken in the same sequence, the figures for `FC(F)n1cc(-c2cnc3c(NCc4nc5cc(Cl)c(Cl)cc5[nH]4)cc(N4CCOCC4)nn23)cn1` [Cmpd 42, N-((5,6-dichloro-1H-benzo[d]imidazol-2-yl)methyl)-3-(1-(difluoromethyl)-1H-pyrazol-4-yl)-6-morpholinoimidazo[1,2-b]pyridazin-8-amine] were 127 nM, 180 nM, 100% and 36 nM.
Consider `FC(F)n1cc(-c2cnc3c(NCc4nc5cc(Cl)c(Cl)cc5[nH]4)cc(N4CCNCC4)nn23)cn1` [Cmpd 43, N-((5,6-dichloro-1H-benzo[d]imidazol-2-yl)methyl)-3-(1-(difluoromethyl)-1H-pyrazol-4-yl)-6-(piperazin-1-yl) imidazo[1,2-b]pyridazin-8-amine], for which the 50% growth inhibitory concentration (GI50) in the test with MDA-MB-231 cell line is 49 nM. In the test with CCNK, the half-maximal degradation concentration (DC50) amounted to 150 nM and the “Dmax (%)” value is given as 100%. At CDK12, the concentration for half-maximal inhibition (IC50) was found to be 292 nM.
The molecule `NC1CCN(c2cc(NCc3nc4cc(Cl)c(Cl)cc4[nH]3)c3ncc(-c4cnn(C(F)F)c4)n3n2)C1` (centres unmarked) [Cmpd 44, 6-(3-aminopyrrolidin-1-yl)-N-((5,6-dichloro-1H-benzo[d]imidazol-2-yl)methyl)-3-(1-(difluoromethyl)-1H-pyrazol-4-yl) imidazo[1,2-b]pyridazin-8-amine] had a GI50 in the test with MDA-MB-231 cell line of 154 nM. For the same molecule, in the test on CCNK, the DC50 came out at 440 nM and the “Dmax (%)” value is listed as 100%. For the same molecule, the IC50 at CDK12 was 1420 nM.
Taken in the same sequence, the figures for `NC1CCN(c2cc(NCc3nc4cc(Cl)c(Cl)cc4[nH]3)c3ncc(-c4cnn(C(F)F)c4)n3n2)CC1` [Cmpd 45, 6-(4-aminopiperidin-1-yl)-N-((5,6-dichloro-1H-benzo[d]imidazol-2-yl)methyl)-3-(1-(difluoromethyl)-1H-pyrazol-4-yl) imidazo[1,2-b]pyridazin-8-amine] were 365 nM, 1200 nM, 100% and 567 nM.
Taken in the same sequence, the figures for `CN1CCC(Nc2cc(NCc3nc4cc(Cl)c(Cl)cc4[nH]3)c3ncc(-c4cnn(C(F)F)c4)n3n2)CC1` [Cmpd 46, N8-((5,6-dichloro-1H-benzo[d]imidazol-2-yl)methyl)-3-(1-(difluoromethyl)-1H-pyrazol-4-yl)-N6-(1-methylpiperidin-4-yl) imidazo[1,2-b]pyridazine-6,8-diamine] were 25 nM, 180 nM, 100% and 68 nM.
On the same counts, the results for `CC1(C)CN(c2cc(NCc3nc4cc(Cl)c(Cl)cc4[nH]3)c3ncc(-c4cnn(C(F)F)c4)n3n2)CCN1` [Cmpd 47, N-((5,6-dichloro-1H-benzo[d]imidazol-2-yl)methyl)-3-(1-(difluoromethyl)-1H-pyrazol-4-yl)-6-(3,3-dimethylpiperazin-1-yl) imidazo[1,2-b]pyridazin-8-amine] are 7 nM, 30 nM, 100% and 18 nM.
Take `CC1(C)CN(c2cc(NCc3nc4cc(Cl)c(Cl)cc4[nH]3)c3ncc(-c4cnn(C(F)F)c4)n3n2)CCO1` [Cmpd 48, N-((5,6-dichloro-1H-benzo[d]imidazol-2-yl)methyl)-3-(1-(difluoromethyl)-1H-pyrazol-4-yl)-6-(2,2-dimethylmorpholino) imidazo[1,2-b]pyridazin-8-amine]: in the test on MDA-MB-231 cell line, growth was halved (GI50) at 130 nM. In addition, in the test with CCNK, it took 200 nM to reach half-maximal degradation (DC50) and the “Dmax (%)” value amounted to 100%. For the same molecule, 2440 nM corresponded to half-maximal inhibition against CDK12 (IC50).
For `CN1CCN(c2cc(NCc3nc4c(F)cccc4[nH]3)c3ncc(-c4cnn(C(F)F)c4)n3n2)CC1` [Cmpd 51, 3-(1-(difluoromethyl)-1H-pyrazol-4-yl)-N-((4-fluoro-1H-benzo[d]imidazol-2-yl)methyl)-6-(4-methylpiperazin-1-yl) imidazo[1,2-b]pyridazin-8-amine], the 50% growth inhibitory concentration (GI50) in the test with MDA-MB-231 cell line was 5130 nM. Further, in the test on CCNK, it took 1900 nM to reach half-maximal degradation (DC50) and the “Dmax (%)” value is 50%. The molecule further gave a remaining activity at 1 µM on CDK12 of 55%.
On to `Fc1cccc2[nH]c(CNc3cc(N4CCOCC4)nn4c(-c5cnn(C(F)F)c5)cnc34)nc12` [Cmpd 52, 3-(1-(difluoromethyl)-1H-pyrazol-4-yl)-N-((4-fluoro-1H-benzo[d]imidazol-2-yl)methyl)-6-morpholinoimidazo[1,2-b]pyridazin-8-amine], for which the 50% growth inhibitory concentration (GI50) in the test on MDA-MB-231 cell line amounted to 390 nM. In the test with CCNK, the DC50 came to 30 nM and the “Dmax (%)” value is listed as 80%. At CDK12, the half-inhibitory concentration (IC50) stood at 359 nM and the remaining activity at 1 µM was determined as 23%.

The term GI50 denotes the concentration that inhibits growth by half. For orientation: DC50 means the midpoint of the concentration-degradation curve. For orientation: remaining activity means the share of the control activity or signal that is left under treatment. Low values mean a large loss of activity, high ones a small loss of activity. Usually IC50 stands for the concentration that inhibits the measured activity by half.
